Measured values published in US20140243261A1, “Method for treating diabetes and fatty liver disese by stimulating cellular metabolism” (priority 2013, published 2014).

Test system: resting carbohydrate metabolism
Assay: Resting metabolism by indirect calorimetric measurement in patients after pulsed IV insulin boluses with oral carbohydrate load
Assay type: in vivo, human
Source text: A basic treatment sequence, in one preferred embodiment, is as follows. • Settle the patient and establish an intravenous (IV) flow. • Measure blood glucose. • From Table 1, arrange for the specified grams of glucose be made available to the patient. • Have the patient consume the glucose relatively quickly (time scale of minutes). Drinking an appropriate amount of GLUCOLA at a convenient rate, such as over about 30 to 90 seconds, is a useful range and route of administration. • Start IV boluses of hormone. Insulin is a useful and typical hormone for this application. • Administer hormone at the selected quantity, rate, and pattern. These details are discussed in more detail in the following sections. A typical sequence will administer the selected amount of insulin (milliunits, determined as per kilogram body weight of the patient). A useful bolus is fairly quick, such as less than five seconds. Bolus injections are repeated periodically. A useful scheme is to give boluses every six minutes, over the course of one hour. It can be useful to give boluses more rapidly. Every four minutes is a useful number. Spacing of approximately three to approximately ten minutes can be useful, and we have not tested the outer ranges of usefulness.
One useful way of assessing metabolic activity and health is to measure the volume of Carbon Dioxide Production and a […]. In example (a) below, CO2 production initially equals 0.124 L per 30 seconds of exhaled breath, with a Resting Energy Ratio of 0.66. The ratio is how one can test the amount of carbohydrate metabolized and thus producing ATP to verify the patient is metabolizing carbohydrates. Below […] is lipid metabolism, and above […] is carbohydrate metabolism.
It is useful for the metabolic assessment of the present invention to express exhaled CO2 in volume/time, such as L/30 sec. This assessment varies by patient, according to their size, lung capacity and other factors understood by one skilled in the art of pulmonary function and metabolism.
A useful tool for assessing this is from Vacuumed. The Vacuumed website (www) vacuumed (corn) includes a good discussion of the resting metabolism measurement. • VO2=oxygen uptake (ml/min) • VCO2=carbon dioxide output (ml/min) • Respiratory quotient (RQ)=VCO2/VO2
• a. The treatment form has 3 one-hour sessions with from 10 to 60 minutes rest between treatments. • b. TREATMENT GOAL: The goal of the treatment is to obtain increased ATP production from carbohydrates, by metabolizing approximately 100 g of glucose for each hour including the rest period. A desirable treatment blood glucose for oral carbohydrates is 150 mg/dl or 8.3 mmol/L of blood glucose. That equates to approximately 380 calories of carbohydrates for each 1-hour treatment session, or a total of 1,140 calories total for the 4.5 to 5.5 hours. • c. In one embodiment, patients' serum glucose level is monitored every thirty minutes to determine carbohydrate uptake and utilization. Resting metabolic measurement by an indirect calorimeter such as the Vacuumed Metabolic Measurement system provides the level of production of ATP from carbohydrates to validate the increase. • d. In order to maintain serum glucose levels sufficient to provide for a carbohydrate load for the production of ATP, the serum glucose is maintained at 150 mg/dl or 8.3 mmol/L or more by starting at 10 milliunits per kilo and increasing by 2 milliunits each 30 minutes until the desired level is achieved. This level is constantly adjusted each 30 minutes until the nominal load is obtained, and then continues for the remainder of the treatment, and is used for subsequent treatments.
a. In a preferred implementation, these patients: • i. Were checked for serum blood glucose (BG) about every 30 minutes, and for about 4.5 hours. • ii. Were given glucose averaging approximately 1,200 calories over that time. • iii. […]

insulin
increase in ATP from carbohydrates (person with Alzheimer's Disease, 83 kg, three one-hour sessions, total 33 units insulin, 14 milliunits/kg): approximately 38%
Carbon Dioxide Production after treatment (person with Alzheimer's Disease, 83 kg, three one-hour sessions, total 33 units insulin, 14 milliunits/kg, baseline 0.151): 0.208 L per 30 seconds
Resting Energy Ratio after treatment (person with Alzheimer's Disease, 83 kg, three one-hour sessions, total 33 units insulin, 14 milliunits/kg, baseline 0.79): 0.99
increase in ATP from carbohydrates (person, 50.5 kg, three one-hour sessions, total 42 units insulin, 28 milliunits/kg): approximately 280%
Carbon Dioxide Production after treatment (person, 50.5 kg, three one-hour sessions, total 42 units insulin, 28 milliunits/kg, baseline 0.121): 0.342 L per 30 seconds
Resting Energy Ratio after treatment (person, 50.5 kg, three one-hour sessions, total 42 units insulin, 28 milliunits/kg, baseline 0.67): 0.98
increase in ATP from carbohydrates (person, 70 kg, three one-hour sessions, total 45 units insulin, 22 milliunits/kg): approximately 320%
Carbon Dioxide Production after treatment (person, 70 kg, three one-hour sessions, total 45 units insulin, 22 milliunits/kg, baseline 0.091): 0.293 L per 30 seconds
Resting Energy Ratio after treatment (person, 70 kg, three one-hour sessions, total 45 units insulin, 22 milliunits/kg, baseline 0.63): 0.98
Carbon Dioxide Production after treatment (person, 85 kg, three one-hour sessions plus rest cycles, total 63 units insulin, 25 milliunits/kg, baseline 0.124): 0.255 L per 30 seconds
increase in ATP from carbohydrates (person, 85 kg, three one-hour sessions, total 63 units insulin, 25 milliunits/kg): approximately 205%
Resting Energy Ratio after treatment (person, 85 kg, three one-hour sessions, total 63 units insulin, 25 milliunits/kg, baseline 0.66): 0.96
